Results: patent publication EP0062319A1, “3-Methyl-1-(2-(3-naphthyloxy)-ethyl)-2-pyrazolin-5-one for the treatment of the metastasis and growth of tumour cells” (BAYER AG, priority 1981, dated 1982)

How the values were obtained:
Assay type in all cases: in vivo, C57BL/6J Mäuse
[1] = test system: B-16a-amelanotischem Melanom; experiment: Spontaneous (full) metastasis of subcutaneously injected B-16a melanoma (lung tumour colonies) in mice; conditions: for Lungen-Tumor-Kolonien B-16a-Zellen: 1,8 x 10^5 cells s.c., killed day 25, mean ± SEM; for Lungen-Tumor-Kolonien B-16a-Zellen (fraction in brackets): bracketed fraction
Excerpt: (§1) Wie bereits weiter oben festgestellt wurde, ist die Metastase […], die durch eine Reihe komplizierter Vorgänge dargestellt wird. Gegenwärtig finden zwei "Modell"-Systeme für die Untersuchung der in vivo-Metastase verbreitete Anwendung. Das erste Modellsystem umfaßt die subkutane Injektion der Tumorzellen in das Tier. Die subkutane Injektion der Tumorzellen und anschließende Entwicklung eines Primärtumors, gefolgt von spontaner Metastase, wird als "volle" Metastase betrachtet. Ein anderes Modellsystem umfaßt die Injektion der Tumorzellen durch die Schwanzvene. In Anbetracht der Komplexität der Metastase gilt die Schwanzvenen-Injektion als künstliches und nur partielles Modellsystem, da es nur die Vorgänge während des letzteren Teils der Metastase wiedergibt. Das Schwanzvenen-Modellsystem gilt jedoch auch als außerordentlich günstig im Hinblick auf eine Standardisierung der Versuchsbedingungen [vgl."Methods in Cancer Research", Kapitel VII, Academic Press, Inc., 1978].
(§2) Als Kontrolltiere wurden (unbehandelte) C57B1/6J-Mäuse nach folgender Arbeitsweise auf volle Metastase untersucht. Zellsuspensionen der B-16 - und 3LL-Karzinom-Zellen, die wie oben unter A und B beschrieben erhalten worden waren, wurden subkutan in die rechte Achselhöhlenregion der männlichen C57BL/6J-Mäuse injiziert (0,66 mm- = 26 gauge -Nadel; 0,2 ml). Injiziert wurden verschiedene Mengen der Zellsuspensionen im Bereich von 1 x 10^5 bis 1 x 10^6 Zellen. Versuche zur partiellen Metastase wurden in der Weise durchgeführt, daß Tumorzellen über die Schwanzvene in die (unbehandelten) Kontroll-Mäuse injiziert wurden. Die Tiere wurden unter identischen Bedingungen der Temperatur, Lichteinwirkungsdauer, Ernährung etc. gehalten. Nach einem Beobachtungszeitraum von 17 bis 30 Tagen wurden die für die volle Metastase und für die partielle Metastase verwendeten Tiere getötet, und die Lungen, Leber, Nieren, Milz und Gehirn-Gewebe wurde entnommen.
(§3) Das entnommene Gewebe wurde in Bouin-Lösung fixiert.
(§4) Die Zahl der metastatischen Knötchen in jedem Organ wurde mit Hilfe eines Bausch-und-Lomb Stereo-Zoom-Mikroskops bestimmt. Die Untersuchung der Kontroll- Mäuse auf metastatische Knötchen ergab bei 100 % der Tiere positive Befunde in bezug auf metastatische Lungentumoren; die Inkubationszeit für die Erzeugung solcher Metastasen betrug für die 3LL-Tumorzellen 17 bis 21 Tage und für die B-16 a -Tumorzellen 23 bis 30 Tage. In Leber, Nieren, Milz oder Gehirn-Gewebe wurden keine sichtbaren Knötchen beobachtet.
Die Wirkung der Verabreichung der Pyrazolon-Verbindung über einen längeren Zeitraum hinweg auf die Zahl der metastatischen Lungen-Kolonien des B-16 a und des Lewis-Lungen-Karzinoms wurde wie nachstehend beschrieben bestimmt.
3 mg 3-Methyl-1-[2-(2-naphthyloxy)-ethyl]-2-pyrazolin-5-on wurden in 0,6 ml Ethylalkohol gelöst, und die Lösung wurde mit konzentrierter Natronlauge auf pH 9,5 eingestellt.
Syngeneischen C57BL/6J Wirts-Mäusen wurde eine Suspension von 1,8 x 10^5 B-16 a -Zellen subkutan injiziert, die wie vorstehend beschrieben hergestellt wurde. Einer anderen Reihe syngeneischer C57BL/6J Wirts-Mäuse wurde eine Suspension von 1 x 10^5 Lewis-Lungen-Karzinom-Zellen, erhalten wie vorstehend beschrieben, subkutan injiziert. […] Die Kontroll-Mäuse und die behandelten Mäuse wurden unter identischen Bedingungen der Temperatur, Lichteinwirkungsdauer, Ernährung etc. gehalten. Die Mäuse, die die B-16 -Tumorzellen injiziert erhalten hatten wurden 25 Tage nach der Injektion der Tumorzellen getötet; die Mäuse, denen die Lewis-Lungen-Karzinom-Zellen injiziert worden waren, wurden 21 Tage nach der Injektion der Tumorzellen getötet.

Lewis-Lungen-Karzinom = experiment: Spontaneous (full) metastasis of subcutaneously injected Lewis lung carcinoma (lung tumour colonies) in mice; conditions: 0.08 mg daily s.c.
Excerpt: as §1
Als Kontrolltiere wurden (unbehandelte) C57B1/6J-Mäuse nach folgender Arbeitsweise auf volle Metastase untersucht. Zellsuspensionen der B-16 - und 3LL-Karzinom-Zellen, die wie oben unter A und B beschrieben erhalten worden waren, wurden subkutan in die rechte Achselhöhlenregion der männlichen C57BL/6J-Mäuse injiziert (0,66 mm- = 26 gauge -Nadel; 0,2 ml). […]

[2] = test system: B-16a-amelanotischen Melanom-Zellen; experiment: Metastasis of tail-vein injected B-16a melanoma cells (lung tumour colonies) in mice; conditions: 5 x 10^4 cells i.v., mean ± SEM, n = 6
Excerpt: as §1, §2, §3, §4
3 mg 3-Methyl-1-[2-(2-naphthyloxy)-ethyl]-2-pyrazolin-5-on wurden in 0,6 ml absolutem Ethylalkohol suspendiert. Das suspendierte Pyrazolon wurde durch Einstellen des pH auf 9,5 mit NaOH gelöst. […]

In the case of `CC1=NN(CCOc2ccc3ccccc3c2)C(=O)C1` [3-Methyl-1-[2-(2-naphthyloxy)-ethyl]-2-pyrazolin-5-on], the “Lungen-Tumor-Kolonien B-16a-Zellen” value ([1]; 0.01 mg daily s.c., colonies on bilateral lung surface) is reported as 1.7 ± 0.7, the “Lungen-Tumor-Kolonien B-16a-Zellen (fraction in brackets)” value ([1]; 0.01 mg daily s.c.) is reported as 7/12 and the “Lungen-Tumor-Kolonien B-16a-Zellen” value ([1]; 0.02 mg daily s.c.) is reported as 2.5 ± 0.9. For the same compound, the “Lungen-Tumor-Kolonien B-16a-Zellen (fraction in brackets)” value ([1]; 0.02 mg daily s.c.) was 7/12, the “Lungen-Tumor-Kolonien B-16a-Zellen” value ([1]; 0.04 mg daily s.c.) was 3.1 ± 0.8 and the “Lungen-Tumor-Kolonien B-16a-Zellen (fraction in brackets)” value ([1]; 0.04 mg daily s.c.) was 8/12. For the same compound, the “Lungen-Tumor-Kolonien B-16a-Zellen” value ([1]; 0.08 mg daily s.c.) was 1.4 ± 0.8, the “Lungen-Tumor-Kolonien B-16a-Zellen (fraction in brackets)” value ([1]; 0.08 mg daily s.c.) was 5/12 and the “Lungen-Tumor-Kolonien Lewis-Lungen-Zellen” value (Lewis-Lungen-Karzinom; 1 x 10^5 cells s.c., killed day 21, mean ± SEM) was 0.8 ± 0.5. The “Lungen-Tumor-Kolonien Lewis-Lungen-Zellen (fraction in brackets)” value (Lewis-Lungen-Karzinom; bracketed fraction) was 2/12, the Lungen-Tumor-Kolonien ([2]; 0.02 mg/mouse s.c. daily for 3 days before tumour cell injection, lungs 14 days later) was 19.3 ± 7.5 and the Lungen-Tumor-Kolonien ([2]; 0.08 mg, second line of the table (presumably injected 1 h before the tumour cells)) was 65 ± 36. It also gave a Lungen-Tumor-Kolonien ([2]; 0.08 mg/mouse s.c. daily for 3 days before tumour cell injection, lungs 14 days later) of 2.7 ± 1.3.
